Data on three molecules can be found in patent publication US10357480B2, “Biotin for treating peripheral demyelinating neuropathy” (MedDay Pharmaceuticals, priority 2015, dated 2019).

Data set [1] concerns IgM anti-MAG demyelinating neuropathy. To be noted: controlled trial (Léger et al, 2013); cited from earlier work.
For data set [2], the system named is patient suffering from ALS. The experiment in a line: Treatment of a patient suffering from ALS with high doses biotin (case report). In kind it is in vivo, human. How it is done: Treatment with biotin 100 mg three times a day was started the 11 Sep. 2015. […] All these medications were introduced at least 6 months before.
Data set [3] relates to patients with demyelinating Charcot Marie Tooth (CMT) disease. The experiment in a line: Treatment of patients with demyelinating Charcot Marie Tooth disease, 6 minutes walking test. It is filed as in vivo, human. The procedure: Two patients with demyelinating Charcot Marie Tooth (CMT) disease were treated with biotin 300 mg/day. • A patient with CMT1a was treated with high doses of biotin (100 mg three times a day). No other treatment was introduced. The patient was followed clinically using a 6 minutes walking test. After 9 months of treatment the maximum walking distance was improved by 100 meters. • A person with CMT1E (a rare form of demyelinating CMT with hearing loss) was treated with high doses biotin (100 mg three times a day). No other drug was introduced.

The subject of data set [4] is patients diagnosed with Neuromyelitis optica. Briefly: Treatment of patients with neuromyelitis optica, visual acuity and motor strength. In kind it is in vivo, human. The following applies: for visual acuity right: 0/10 at onset; for visual acuity left: 9/10 at onset. The source says: Biotin can be used for treatment of neuromyelitis optica, using the same kind of regimen as disclosed in Examples 1 and 4.
Endpoint would be partial recovery and improvement of vision or of motor strength. Three patients will be treated and assessed every 6 months with measures of visual acuity (VA) and clinical examination including motor strength testing. Results will be considered positive in case of improvement of VA of at least 5 letters associated with any improvement of motor strength.
Results: • Patient 1: this person was diagnosed with Neuromyelitis optica. First episode of right optic neuritis occurred in 2006. This was followed by an attack of tetraplegia in 2009 with positive anti-NMO antibodies. […] The patient could not walk. Treatment with biotin (100 mg three times a day) was started. […] Treatment with biotin (100 mg three times a day) was introduced. At that time the patient was treated with monthly perfusions of cyclophosphamide. Visual acuity was 0/10 right and 9/10 left. After 4 months of treatment with biotin, visual acuity was 1/10 right and 6/10 left. After 18 months of treatment, visual acuity was 2/10 right and 8/10 left. It was concluded that treatment with biotin improved the right visual acuity.

For data set [5] the following is noted: in vivo; cited from earlier work.
For the next data set, the system named is CMT1A. To be noted: six clinical trials, 1- or 2-year AA treatment; cited from earlier work.
Setting [6] is: biotin 100 mg three times a day.

As to Rituximab: monoclonal antibody, the patients condition entry in data set [1] is listed as “didn't really improve”.
As to `O=C(O)CCCC[C@@H]1SC[C@@H]2NC(=O)N[C@@H]21` [biotin, Biotin], the “time the patient could switch off the medical ventilator” value in data set [2] (after 6 months of treatment, dependent on ventilator 24 hours a day at beginning) stood at 4 hours a day. Besides, the disability entry in data set [2] (setting [6]) is “some stabilization of its disability”. For the same molecule, the “weight of the patient” value in data set [2] (setting [6]) was “slightly increased”. Moreover, the “muscle atrophy in lower extremities” value in data set [2] (biotin 100 mg three times a day, after 3 and 6 months, better exercise tolerance during physical therapy) was “some improvement”. Moreover, the “limbs weakness and swallowing” value in data set [2] (biotin 100 mg three times a day, after 3 and 6 months, concomitant riluzole and other medications) is reported as “stabilization”. Also, the “6 minutes walk test” value is on record as 490 meters in data set [3] (CMT1E patient, after 9 months, 396 meters at onset); 480 meters in data set [3] (CMT1E patient, after 12 months, 396 meters at onset); 483 meters in data set [3] (CMT1E patient, after 18 months, 396 meters at onset); 580 meters in data set [3] (CMT1E patient, after 24 months, 396 meters at onset); 515 meters in data set [3] (person with CMT1E, biotin 100 mg three times a day, after 3 months, 396 meters at treatment's onset). Besides, in data set [3] (patient with CMT1a, biotin 100 mg three times a day, after 9 months), the “improvement of maximum walking distance, 6 minutes walking test” value worked out at 100 meters. In addition, the “strength in the right lower limb” value in data set [4] (NMO Patient 1, after 9 months) is given as “better strength”. Moreover, the walking ability result in data set [4] (NMO Patient 1, after 24 months, could not walk at onset) is “walk with two aids and the help of the physical therapist”. Also, the tolerability of treatment result in data set [4] (NMO Patient 1, biotin 100 mg three times a day, 24 months) is given as “very well tolerated”. The right hand movements result in data set [4] (NMO Patient 1, biotin 100 mg three times a day, after three months, confirmed after 9 months) is on record as “some improvement”. Further, the visual acuity right is reported as 1/10 in data set [4] (NMO Patient 2, after 4 months of biotin 100 mg three times a day, monthly cyclophosphamide) and 2/10 in data set [4] (NMO Patient 2, after 18 months). Moreover, the visual acuity left was 6/10 in data set [4] (NMO Patient 2, after 4 months) and 8/10 in data set [4] (NMO Patient 2, after 18 months). Moreover, in data set [5], the plasma half life entry is “about 2 hours”.
On to `O=C1O[C@H]([C@@H](O)CO)C(O)=C1O` [Ascorbic acid], for which the clinical benefit result with CMT1A was “no clinical benefit”.
